Measurements: US20240308985A1 (Psy Therapeutics, Inc., priority 2021, published 2024)
Where two headings read alike, the source gives them in different places.

Target: Monoacylglycerol Lipase (MAGL) (Homo sapiens (Human), UniProt Q99685)
Assay: MAGL inhibition potency (IC50) assay with 4NPA substrate
Type: biochemical
Description: The potency of certain compounds for inhibiting MAGL were obtained using the following assays. The monoacylglycerol lipase inhibitor screening assay kit from Cayman Chemical was used to measure the MAGL potency for the compounds in Table 6 and Table 7. Cayman's Monoacylglycerol Lipase Inhibitor Screening Assay provides a method for screening human MAGL inhibitors. MAGL hydrolyzes 4-nitrophenylacetate resulting in a yellow product, 4-nitrophenol, with an absorbance of 405-412 nm. MAGL Inhibition was measured by the following assay. Monoacylglycerol Lipase (MAGL) inhibition was measured using recombinant MAGL enzyme (aa 2-303 RBC, internal preparation) and the substrate 4-Nitrophenyl acetate (4NPA) (Sigma-Aldrich, N8130). Hydrolysis of the substrate in the presence of the enzyme was measured by absorbance at 405 nm. 10 μL of assay buffer (10 mM Tris pH 7.5, 1 mM EDTA, 0.9% DMSO) was added to a black 384-well non-binding plate with clear bottom (Greiner, 781906) for each reaction. […] DMSO control wells were included for reference. A 10.8 nM (1.8×) MAGL mix in assay buffer was prepared, with 25 μL added to each reaction well, for a final assay concentration of 6 nM. No enzyme wells received 25 μL of buffer. Plate was incubated at room temperature for 30 minutes. 35 mM solution of 4NPA in methanol was prepared daily. A 4.5×4NPA substrate solution was prepared in assay buffer and 10 μL was added to each reaction well, for a final assay concentration of 0.25 mM. Plate was spun for 1 minute at 1000 rpm before measuring absorbance using a CLARIOstar plate reader (BMG Labtech). A kinetic reading at 405 nm was done every minute for 30 minutes. Data was analyzed using the linear slope of the reaction progress curve and the average of the no-enzyme wells (background) was subtracted from the data. The background-subtracted slope data was converted to % activity using the average of wells with enzyme and DMSO vehicle. IC50s were calculated using GraphPad software (Sigmoidal dose response, variable slope equation). […] Table 8 provides potency measurements of MAGL inhibition measured using the Potency Assay of Example 22 above, with the following modifications described in Table C. [table]

[1] = Method 6: Reaction Biology MAGL enzyme, 6 nM, read-out: MAGL Potency (Detection Method)
[2] = Method 11: Reaction Biology MAGL enzyme, 25 nM (name: Conc 20), read-out: MAGL Potency (Detection Method)
[3] = Method 12: Reaction Biology MAGL enzyme, 15 nM, read-out: MAGL Potency (Detection Method)
[4] = Method 13: Reaction Biology MAGL enzyme, 12 nM, read-out: MAGL Potency (Detection Method)
[5] = Method 12: Reaction Biology MAGL enzyme, 15 nM, read-out: Potency (MAGL inhibition)

Chain of Monoacylglycerol Lipase (MAGL) (Q99685 2-303): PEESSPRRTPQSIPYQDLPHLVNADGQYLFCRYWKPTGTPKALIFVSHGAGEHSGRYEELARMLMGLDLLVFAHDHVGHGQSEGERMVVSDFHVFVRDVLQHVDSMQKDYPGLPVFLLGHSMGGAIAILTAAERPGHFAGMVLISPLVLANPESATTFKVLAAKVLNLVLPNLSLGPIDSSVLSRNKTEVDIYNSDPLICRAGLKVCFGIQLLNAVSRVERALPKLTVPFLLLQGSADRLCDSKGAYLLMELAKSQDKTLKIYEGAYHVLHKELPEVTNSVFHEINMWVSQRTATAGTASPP

Compound O=C(c1cc(O)ccc1F)N1CC2(CC(n3cc(C4CC4)c(-c4ccccc4Cl)n3)C2)C1 [Compound 445] has an IC50 (Method 6: Reaction Biology MAGL enzyme, 6 nM, read-out: Potency (MAGL inhibition)) greater than 10000 nM.
Cc1ccc(F)cc1-c1cc(C)n(C2CC3(C2)CN(C(=O)c2cc(O)ccc2F)C3)n1 [Compound 446, (2-fluoro-5-hydroxyphenyl){6-[3-(5-fluoro-2-tolyl)-5-methyl-1-pyrazolyl]-2-aza-2-spiro[3.3]heptyl}methanone] showed an IC50 [1] of less than 50 nM.
For Cc1ccccc1-c1nn(C2CC3(C2)CN(C(=O)c2ccc(F)cc2OC2CC2)C3)cc1C [Compound 447, (2-cyclopropoxy-4-fluorophenyl){6-[4-methyl-3-(o-tolyl)-1-pyrazolyl]-2-aza-2-spiro[3.3]heptyl}methanone], the IC50 [1] was 150 to 500 nM.
Cc1cn(C2CC3(C2)CN(C(=O)c2ccc(F)cc2OC2CC2)C3)nc1-c1ccccc1C(F)(F)F [Compound 448, (2-cyclopropoxy-4-fluorophenyl)(6-{4-methyl-3-[o-(trifluoromethyl)phenyl]-1-pyrazolyl}-2-aza-2-spiro[3.3]heptyl)methanone] was tested, and the IC50 [1] was 50 to 150 nM.
Compound Cc1ccc(F)cc1-c1nn(C2CC3(C2)CN(C(=O)c2ccc(F)cc2OC2CC2)C3)cc1C [Compound 449, (2-cyclopropoxy-4-fluorophenyl){6-[3-(5-fluoro-2-tolyl)-4-methyl-1-pyrazolyl]-2-aza-2-spiro[3.3]beptyl}methanone] has an IC50 [1] of 150 to 500 nM.
With Cc1ccc(F)cc1-c1cc(C)n(C2CC3(C2)CN(C(=O)c2ccc(F)cc2OC2CC2)C3)n1 [Compound 450, (2-cyclopropoxy-4-fluorophenyl){6-[3-(5-fluoro-2-tolyl)-5-methyl-1-pyrazolyl]-2-aza-2-spiro[3.3]heptyl}methanone] the IC50 [1] was 150 to 500 nM.
In the case of Cc1cnn(C2CC3(C2)CN(C(=O)c2ccc(F)cc2OC2CC2)C3)c1-c1ccccc1F [Compound 452, (2-cyclopropoxy-4-fluorophenyl){6-[5-(o-fluorophenyl)-4-methyl-1-pyrazolyl]-2-aza-2-spiro[3.3]beptyl}methanone], the IC50 [1] is reported as 1000 to 5100 nM.
For Cc1ccc(F)cc1-c1cc(C)n(C2CC3(C2)CN(C(=O)c2ccc(F)cc2OC(F)(F)F)C3)n1 [Compound 454, {6-[3-(5-fluoro-2-tolyl)-5-methyl-1-pyrazolyl]-2-aza-2-spiro[3.3]heptyl}(4-fluoro-2-trifluoromethoxyphenyl)methanone], the IC50 [2] was 1000 to 5100 nM.
Cc1ccc(F)cc1-c1cc(C)n(C2CC3(C2)CN(C(=O)c2ccc(F)cc2OC(F)F)C3)n1 [Compound 455, (2-difluoromethoxy-4-fluorophenyl){6-[3-(5-fluoro-2-tolyl)-5-methyl-1-pyrazolyl]-2-aza-2-spiro[3.3]heptyl}methanone] was tested, and the IC50 [1] was 50 to 150 nM.
Cc1ccc(F)cc1-c1cc(C(F)(F)F)n(C2CC3(C2)CN(C(=O)c2ccc(F)cc2OC2CC2)C3)n1 [Compound 456, (2-cyclopropoxy-4-fluorophenyl){6-[3-(5-fluoro-2-tolyl)-5-(trifluoromethyl)-1-pyrazolyl]-2-aza-2-spiro[3.3]heptyl}methanone] showed an IC50 [2] of 500 to 1000 nM.
For Cc1ccc(F)cc1-c1cc(C(F)(F)F)nn1C1CC2(C1)CN(C(=O)c1ccc(F)cc1OC1CC1)C2 [Compound 457, (2-cyclopropoxy-4-fluorophenyl){6-[5-(5-fluoro-2-tolyl)-3-(trifluoromethyl)-1-pyrazolyl]-2-aza-2-spiro[3.3]heptyl}methanone], the IC50 [2] was 1000 to 5100 nM.
Compound COc1cc(F)ccc1C(=O)N1CC2(CC(n3nc(-c4cc(F)ccc4C)cc3C(F)(F)F)C2)C1 [Compound 458, (4-fluoro-2-methoxyphenyl){6-[3-(5-fluoro-2-tolyl)-5-(trifluoromethyl)-1-pyrazolyl]-2-aza-2-spiro[3.3]heptyl}methanone] has an IC50 [2] of 1000 to 5100 nM.
For CCOc1cc(F)ccc1C(=O)N1CC2(CC(n3nc(C)cc3-c3ccccc3C)C2)C1 [Compound 460], the IC50 [2] was 1000 to 5100 nM.
CCOc1cc(F)ccc1C(=O)N1CC2(CC(n3nc(-c4ccccc4C)cc3C)C2)C1 [Compound 461, (2-ethoxy-4-fluorophenyl){6-[5-methyl-3-(o-tolyl)-1-pyrazolyl]-2-aza-2-spiro[3.3]heptyl}methanone] gave an IC50 [2] of 500 to 1000 nM.
CCOc1cc(F)ccc1C(=O)N1CC2(CC(n3nc(C)cc3-c3cc(F)ccc3C)C2)C1 [Compound 462, (2-ethoxy-4-fluorophenyl){6-[5-(5-fluoro-2-tolyl)-3-methyl-1-pyrazolyl]-2-aza-2-spiro[3.3]heptyl}metbanone] showed an IC50 [2] of 1000 to 5100 nM.
CCOc1cc(F)ccc1C(=O)N1CC2(CC(n3nc(-c4cc(F)ccc4C)cc3C)C2)C1 [Compound 463, (2-ethoxy-4-fluorophenyl){6-[3-(5-fluoro-2-tolyl)-5-methyl-1-pyrazolyl]-2-aza-2-spiro[3.3]heptyl}methanone] was tested, and the IC50 [2] was 500 to 1000 nM.
Cc1cc(-c2ccccc2C)n(C2CC3(C2)CN(C(=O)c2ccc(F)cc2OCC(F)(F)F)C3)n1 [Compound 464, [4-fluoro-2-(2,2,2-trifluoroethoxy)phenyl]{6-[3-methyl-5-(o-tolyl)-1-pyrazolyl]-2-aza-2-spiro[3.3]heptyl}methanone] showed an IC50 [2] of 500 to 1000 nM.
Compound Cc1ccccc1-c1cc(C)n(C2CC3(C2)CN(C(=O)c2ccc(F)cc2OCC(F)(F)F)C3)n1 [Compound 465, [4-fluoro-2-(2,2,2-trifluoroethoxy)phenyl]{6-[5-methyl-3-(o-tolyl)-1-pyrazolyl]-2-aza-2-spiro[3.3]heptyl}methanone] has an IC50 [2] of 150 to 500 nM.
Cc1cc(-c2cc(F)ccc2C)n(C2CC3(C2)CN(C(=O)c2ccc(F)cc2OCC(F)(F)F)C3)n1 [Compound 466] was tested, and the IC50 [2] was 500 to 1000 nM.
Cc1ccc(F)cc1-c1cc(C)n(C2CC3(C2)CN(C(=O)c2ccc(F)cc2OCC(F)(F)F)C3)n1 [Compound 467, {6-[3-(5-fluoro-2-tolyl)-5-methyl-1-pyrazolyl]-2-aza-2-spiro[3.3]heptyl} [4-fluoro-2-(2,2,2-trifluoroethoxy)phenyl]methanone] gave an IC50 [2] of 150 to 500 nM.
Work on Cc1ccc(F)c(-c2nn(C3CC4(C3)CN(C(=O)c3cc(O)ccc3F)C4)cc2C(F)(F)F)c1 [Compound 475, (2-fluoro-5-hydroxyphenyl){6-[3-(2-fluoro-5-tolyl)-4-(trifluoromethyl)-1-pyrazolyl]-2-aza-2-spiro[3.3]heptyl}methanone] yielded an IC50 [3] of less than 50 nM.
With Cc1cn(C2CC3(C2)CN(C(=O)c2cc(O)ccc2F)C3)nc1-c1cc(F)ccc1F [Compound 477, {6-[3-(2,5-difluorophenyl)-4-methyl-1-pyrazolyl]-2-aza-2-spiro[3.3]heptyl}(2-fluoro-5-hydroxyphenyl)methanone] the IC50 [4] was less than 50 nM.
With O=C(c1cc(O)ccc1F)N1CC2(CC(n3nc(C(F)(F)F)cc3-c3ccccc3C(F)(F)F)C2)C1 [Compound 487, (2-fluoro-5-hydroxyphenyl)(6-{3-(trifluoromethyl)-5-[o-(trifluoromethyl)phenyl]-1-pyrazolyl}-2-aza-2-spiro[3.3]heptyl)methanone] the IC50 [4] was 150 to 500 nM.
O=C(c1cc(O)ccc1F)N1CC2(CC(n3cc(C4CC4)c(-c4ccccc4C(F)(F)F)n3)C2)C1 [Compound 488, (6-{4-cyclopropyl-3-[o-(trifluoromethyl)phenyl]-1-pyrazolyl}-2-aza-2-spiro[3.3]heptyl)(2-fluoro-5-hydroxyphenyl)methanone] gave an IC50 [3] of less than 50 nM.
Cc1cnn(C2CC3(C2)CN(C(=O)c2cc(O)ccc2C(F)(F)F)C3)c1-c1ccccc1F [Compound 494] showed an IC50 [5] greater than 10000 nM.
Cc1cn(C2CC3(C2)CN(C(=O)c2cc(O)ccc2C(F)(F)F)C3)nc1-c1ccccc1F [Compound 495] gave an IC50 [5] greater than 10000 nM.
Compound O=C(c1c(F)cccc1OC1CC1)N1CC2(CC(n3ncc(C(F)(F)F)c3-c3ccccc3F)C2)C1 [Compound 521] has an IC50 [5] greater than 10000 nM.
O=C(c1c(F)cccc1OC1CC1)N1CC2(CC(n3cc(C(F)(F)F)c(-c4ccccc4F)n3)C2)C1 [Compound 522, (2-cyclopropoxy-6-fluorophenyl){6-[3-(o-fluorophenyl)-4-(trifluoromethyl)-1-pyrazolyl]-2-aza-2-spiro[3.3]heptyl}methanone] gave an IC50 [3] of 1000 to 5100 nM.
For O=C(c1ccc(F)cc1OC1CC1)N1CC2(CC(n3ncc(C(F)(F)F)c3-c3ccccc3F)C2)C1 [Compound 523, (2-cyclopropoxy-4-fluorophenyl) {6-[5-(o-fluorophenyl)-4-(trifluoromethyl)~1-pyrazolyl]-2-aza-2-spiro[3.3]heptyl}methanone], the IC50 [3] was 1000 to 5100 nM.
For O=C(c1ccc(F)cc1OC1CC1)N1CC2(CC(n3cc(C(F)(F)F)c(-c4ccccc4F)n3)C2)C1 [Compound 524, (2-cyclopropoxy-4-fluorophenyl){6-[3-(o-fluorophenyl)-4-(trifluoromethyl)-1-pyrazolyl]-2-aza-2-spiro[3.3]heptyl}methanone], the IC50 [3] was 150 to 500 nM.
